Read-outs that look alike come from different tables or passages of the source.
Tests used:
[1] = system: NCI-H358 cells (K-Ras G12C); experiment: Potency assay: pERK in NCI-H358 cells; type: cell-based, human
Experimental: The purpose of this assay is to measure the ability of test compounds to inhibit K-Ras in cells. […] This procedure measures a decrease in cellular pERK in response to test compounds.
NCI-H358 cells were grown and maintained using media and procedures recommended by the ATCC. On the day prior to compound addition, cells were plated in 384-well cell culture plates (40 μl/well) and grown overnight in a 37° C., 5% CO2 incubator. Test compounds were prepared in 10, 3-fold dilutions in DMSO, with a high concentration of 10 mM. On the day of assay, 40 nL of test compound was added to each well of cell culture plate using an Echo550 liquid handler (LabCyte®). Concentrations of test compound were tested in duplicate. After compound addition, cells were incubated 4 hours at 37° C., 5% CO2. Following incubation, culture medium was removed and cells were washed once with phosphate buffered saline.
In some experiments, cellular pERK level was determined using the AlphaLISA SureFire Ultra p-ERK1/2 Assay Kit (PerkinElmer). Cells were lysed in 25 μL lysis buffer, with shaking at 600 RPM at room temperature. […] After a 2-hour incubation in the dark, 5 μL donor mix was added, plate was sealed, and incubated 2 hours at room temperature. Signal was read on an Envision plate reader (PerkinElmer) using standard AlphaLISA settings. Analysis of raw data was carried out in Excel (Microsoft) and Prism (GraphPad). Signal was plotted vs. the decadal logarithm of compound concentration, and IC50 was determined by fitting a 4-parameter sigmoidal concentration response model.
In other experiments, cellular pERK was determined by In-Cell Western. […] Fixed cells were washed 4 times for 5 minutes with TBS containing 0.1% Triton X-100 (TBST) and then blocked with 100 μL Odyssey blocking buffer (LI-COR) for 60 minutes at room temperature. […] Cells were washed 4 times for 5 minutes with TBST. Secondary antibody (IR-800CW rabbit, LI-COR, diluted 1:800) and DNA stain DRAQS (LI-COR, diluted 1:2000) were added and incubated 1-2 hours at room temperature. Cells were washed 4 times for 5 minutes with TBST. Plates were scanned on a Li-COR Odyssey CLx Imager. Analysis of raw data was carried out in Excel (Microsoft) and Prism (Graph Pad). Signal was plotted vs. the decadal logarithm of compound concentration, and IC50 was determined by fitting a 4-parameter sigmoidal concentration response model.

[2] = system: NCI-H358 (K-Ras G12C); experiment: CellTiter-Glo cell viability assay, NCI-H358; type: cell-based, human; conditions: NCI-H358, 5-day treatment, class symbols, read-out: Additional H358 Cell Viability assay data (K-Ras G12C, IC50)
Experimental: Note—The following protocol describes a procedure for monitoring cell viability of K-Ras mutant cancer cell lines in response to a compound of the invention. Other RAS isoforms may be employed, though the number of cells to be seeded will vary based on cell line used.
Test compounds (132.5 nL) were directly dispensed into the assay plates containing cells. […] On day 5, assay plates and their contents were equilibrated to room temperature for approximately 30 minutes. […] Luminescence was measured using the PerkinElmer Enspire. Data were normalized by the following: (Sample signal/Avg. DMSO)*100. The data were fit using a four-parameter logistic fit.

[3] = target: KRAS G12S (Homo sapiens (Human), UniProt P01116+P62937, G12S); experiment: Ras-Raf (BRAF RBD) disruption / FRET / MOA assay, KRAS G12S; type: biochemical; conditions: Ras-Raf disruption/FRET/MOA assay; class symbols; read-out: KRAS G12S FRET data IC50
Experimental: (§1) The purpose of this biochemical assay is to measure the ability of test compounds to facilitate ternary complex formation between a nucleotide-loaded Ras isoform and cyclophilin A; the resulting ternary complex disrupts binding to a BRAF^RBD construct, inhibiting Ras signaling through a RAF effector.
(§2) Compound is present in plate wells as a 10-point 3-fold dilution series starting at a final concentration of 30 μM. After incubation at 25° C. for 3 hours, a mixture of Anti-His Eu-W1024 and anti-GST allophycocyanin is then added to assay sample wells at final concentrations of 10 nM and 50 nM, respectively, and the reaction incubated for an additional 1.5 hours. […] Compounds that facilitate disruption of a Ras:RAF complex are identified as those eliciting a decrease in the TR-FRET ratio relative to DMSO control wells.
(§3) This protocol may also be executed substituting other Ras proteins or nucleotides.
(§4) The purpose of this biochemical assay was to measure the ability of test compounds to facilitate ternary complex formation between a nucleotide-loaded K-Ras isoform and Cyclophilin A; the resulting ternary complex disrupts binding to a BRAF^RBD construct, inhibiting K-Ras signaling through a RAF effector. Data is reported as IC50 values.
as §2, with “Compound was” for “Compound is”, “allophycocyanin was” for “allophycocyanin is”, “a K-Ras:RAF” for “a Ras:RAF”, “complex were” for “complex are”

[4] = target: KRAS G12D (Homo sapiens (Human), UniProt P01116+P62937, G12D); experiment: Ras-Raf (BRAF RBD) disruption / FRET / MOA assay, KRAS G12D; type: biochemical; conditions: Ras-Raf disruption/FRET/MOA assay; class symbols; read-out: KRAS G12D FRET data IC50
Experimental: as §1, §2, §3, §4
as §2, with “Compound was” for “Compound is”, “allophycocyanin was” for “allophycocyanin is”, “a K-Ras:RAF” for “a Ras:RAF”, “complex were” for “complex are”

[5] = Homo sapiens, NCI-H358, H358 KRAS G12C, read-out: pERK EC50
[6] = H358 KRAS G12C, read-out: pERK EC50

KRAS G12D, sequence (P01116-2 other isoform, or with tags, fused parts or gaps G12D): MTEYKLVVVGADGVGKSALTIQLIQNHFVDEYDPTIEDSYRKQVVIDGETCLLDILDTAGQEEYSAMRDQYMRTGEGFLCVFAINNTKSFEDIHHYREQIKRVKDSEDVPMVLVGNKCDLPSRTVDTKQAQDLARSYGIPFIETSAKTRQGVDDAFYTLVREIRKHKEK
KRAS G12D, sequence (P62937 whole entry): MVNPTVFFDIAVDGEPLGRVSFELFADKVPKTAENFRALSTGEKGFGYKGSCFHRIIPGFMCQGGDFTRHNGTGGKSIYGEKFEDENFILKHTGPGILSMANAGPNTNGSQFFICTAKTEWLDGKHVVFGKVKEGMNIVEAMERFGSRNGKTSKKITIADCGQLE
KRAS G12S, sequence (P01116-2 other isoform, or with tags, fused parts or gaps G12S): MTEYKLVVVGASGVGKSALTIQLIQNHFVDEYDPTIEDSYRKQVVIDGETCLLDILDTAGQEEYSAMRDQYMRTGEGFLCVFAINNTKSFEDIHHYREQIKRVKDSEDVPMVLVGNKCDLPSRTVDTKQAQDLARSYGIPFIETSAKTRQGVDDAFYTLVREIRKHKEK
KRAS G12S, sequence (P62937 whole entry, canonical isoform): as the sequence (P62937 whole entry) above

Structure (SMILES): C=CC(=O)N1CC[C@H](C(=O)N(C)[C@H](C(=O)N[C@H]2Cc3cccc(c3)-c3ccc4c(c3)c(c(-c3ccccc3CCOC)n4CC)CC(C)(C)COC(=O)[C@@H]3CCCN(N3)C2=O)C(C)C)C1 (atropisomer, axis not shown) [Example A24]
- EC50 [1, 5]: < 5 µM
- IC50 ([2]; Homo sapiens, NCI-H358, 120 h): > 1 µM

Structure (SMILES): C=CC(=O)N1CC[C@H](C(=O)N(C)[C@H](C(=O)N[C@H]2Cc3cc(O)cc(c3)-c3cc(F)c4c(c3)c(c(-c3ccccc3CCOC)n4CC)CC(C)(C)COC(=O)[C@@H]3CCCN(N3)C2=O)C(C)C)C1 (atropisomer, axis not shown) [Example A53]
- EC50 [1, 5]: < 5 µM
- IC50 ([2]; Homo sapiens, NCI-H358, 120 h): 0.1 to 1 µM

Structure (SMILES): CC#CC(=O)N1CC[C@H](C(=O)N(C)[C@@H](C(=O)N[C@H]2Cc3cc(O)cc(c3)-c3ccc4c(c3)c(c(-c3cccnc3[C@H](C)OC)n4CC)CC(C)(C)COC(=O)[C@@H]3CCCN(N3)C2=O)C(C)C)C1 (atropisomer, axis not shown) [Example A198]
- IC50 [2]: > 1 µM

Structure (SMILES): CC#CC(=O)N1CC[C@H](C(=O)N(C)[C@@H](C(=O)N[C@H]2Cc3cc(O)cc(c3)-c3ccc4c(c3)c(c(-c3cccnc3[C@H](C)OC)n4CC)CC(C)(C)COC(=O)[C@@H]3CCCN(N3)C2=O)C(C)C)C1 (atropisomer, axis not shown) [Example A199]
- EC50 [1, 6]: < 5 µM
- IC50 [2]: 0.1 to 1 µM

Structure (SMILES): CC#CC(=O)N1CC[C@H](C(=O)N(C)[C@H](C(=O)N[C@H]2Cc3cc(O)cc(c3)-c3ccc4c(c3)c(c(-c3cccnc3[C@H](C)OC)n4CC)CC(C)(C)COC(=O)[C@@H]3CCCN(N3)C2=O)C(C)C)C1 (atropisomer, axis not shown; (M)) [Example A145, (2S)-2-{1-[(3S)-1-(but-2-ynoyl)pyrrolidin-3-yl]-N-methylformamido}-N-[(8S,14S,20M)-22-ethyl-4-hydroxy-21-{2-[(1S)-1-methoxyethyl]pyridin-3-yl}-18,18-dimethyl-9,15-dioxo-16-oxa-10,22,28-triazapentacyclo[18.5.2.1^2,^6.1^10,^14.0^23,^27]nonacosa-1(26),2,4,6(29),20,23(27),24-heptaen-8-yl]-3-methylbutanamide]
- EC50 [1, 6]: < 5 µM

Structure (SMILES): C=CC(=O)N1CC[C@H](C(=O)N(C)[C@H](C(=O)N[C@H]2Cc3cc(O)cc(c3)-c3ccc4c(c3)c(c(-c3ccccc3CO)n4CC)CC(C)(C)COC(=O)[C@@H]3CCCN(N3)C2=O)C(C)C)C1 [Example A4]
- EC50 [1, 5]: < 5 µM

Structure (SMILES): C=CC(=O)N1CC[C@H](C(=O)N(C)[C@H](C(=O)N[C@H]2Cc3cc(O)cc(c3)-c3ccc4c(c3)c(c(-c3ccccc3CCOC)n4C(C)(C)C#N)CC(C)(C)COC(=O)[C@@H]3CCCN(N3)C2=O)C(C)C)C1 [Example A12]
- EC50 [1, 5]: < 5 µM

Structure (SMILES): CCn1c(-c2ccccc2CCOC)c2c3cc(ccc31)-c1cc(O)cc(c1)C[C@H](NC(=O)[C@H](C(C)C)N(C)C(=O)[C@H]1CCN(C(=O)/C=C/CN(C)C)C1)C(=O)N1CCC[C@H](N1)C(=O)OCC(C)(C)C2 [Example A15]
- EC50 [1, 5]: < 5 µM

Structure (SMILES): C=CC(=O)N1CC[C@H](C(=O)N(C)[C@H](C(=O)N[C@H]2Cc3cc(OC(=O)CCC(=O)O)cc(c3)-c3ccc4c(c3)c(c(-c3ccccc3CCOC)n4CC)CC(C)(C)COC(=O)[C@@H]3CCCN(N3)C2=O)C(C)C)C1 [Example A32]
- EC50 [1, 5]: < 5 µM

Structure (SMILES): C=CC(=O)N1CC[C@H](C(=O)N(C)[C@H](C(=O)N[C@H]2Cc3cc(O)cc(c3)-c3ccc4c(c3)c(c(-c3ccccc3CCOC)n4C(C)(C)C#N)CC(C)(C)COC(=O)[C@@H]3CCCN(N3)C2=O)C(C)C)C1 [Example A34]
- EC50 [1, 6]: < 5 µM

Structure (SMILES): C=CC(=O)N1CCN(C(=O)N(C)[C@H](C(=O)N[C@H]2Cc3cc(O)cc(c3)-c3ccc4c(c3)c(c(-c3ccccc3CN(C)C)n4CC)CC(C)(C)COC(=O)[C@@H]3CCCN(N3)C2=O)C(C)C)CC1 [Example A37]
- EC50 [1, 5]: < 5 µM

Structure (SMILES): C=CC(=O)N1CC[C@H](C(=O)N(C)[C@H](C(=O)N[C@H]2Cc3cc(O)cc(c3)-c3ccc4c(c3)c(c(-c3ccncc3CCOC)n4CC)CC(C)(C)COC(=O)[C@@H]3CCCN(N3)C2=O)C(C)C)C1 [Example A48]
- EC50 [1, 5]: < 5 µM

Structure (SMILES): CCn1c(-c2ccccc2CN(C)C)c2c3cc(ccc31)-c1cc(O)cc(c1)C[C@H](NC(=O)[C@H](C(C)C)N(C)C(=O)c1ccc(NC(=O)/C=C/CN(C)C)cc1)C(=O)N1CCC[C@H](N1)C(=O)OCC(C)(C)C2 [Example A49]
- IC50 ([2]; Homo sapiens, NCI-H358, 120 h): > 1 µM

Structure (SMILES): CCn1c(-c2cccnc2COC)c2c3cc(ccc31)-c1cc(O)cc(c1)C[C@H](NC(=O)[C@H](C(C)C)N(C)C(=O)[C@H]1CCN(C(=O)/C=C/CN3CCN(C)CC3)C1)C(=O)N1CCC[C@H](N1)C(=O)OCC(C)(C)C2 [Example A72]
- IC50 ([2]; Homo sapiens, NCI-H358, 120 h): > 1 µM

Structure (SMILES): C=CC(=O)N1CC[C@H](C(=O)N(C)[C@H](C(=O)N[C@H]2Cc3cc(O)cc(c3)-c3ccc4c(c3)c(c(-c3cccnc3)n4C(C)(C)C#N)CC(C)(C)COC(=O)[C@@H]3CCCN(N3)C2=O)C(C)C)C1 [Example A74]
- EC50 [1, 6]: < 5 µM

Structure (SMILES): C=CC(=O)N1CC[C@H](C(=O)N(C)[C@H](C(=O)N[C@H]2Cc3cc(O)cc(c3)-c3ccc4c(c3)c(c(-c3cnccc3[C@H](C)OC)n4CC)CC(C)(C)COC(=O)[C@@H]3CCCN(N3)C2=O)C(C)C)C1 [Example A76]
- EC50 [1, 6]: < 5 µM

Structure (SMILES): C=CC(=O)N1CC[C@H](C(=O)N(C)[C@H](C(=O)N[C@H]2Cc3cc(OC(=O)N(C)CC(=O)O)cc(c3)-c3ccc4c(c3)c(c(-c3ccccc3CCOC)n4CC)CC(C)(C)COC(=O)[C@@H]3CCCN(N3)C2=O)C(C)C)C1 [Example A78]
- EC50 ([1]; Homo sapiens, NCI-H358, read-out: pERK EC50): < 5 µM

Structure (SMILES): C=CC(=O)N1CC[C@H](C(=O)N(C)[C@H](C(=O)N[C@H]2Cc3cc(O)cc(c3)-c3ccc4c(c3)c(c(-c3cncc(CCN(C)C)c3)n4CC)CC(C)(C)COC(=O)[C@@H]3CCCN(N3)C2=O)C(C)C)C1 [Example A81]
- EC50 [1, 5]: < 5 µM

Structure (SMILES): CCn1c(-c2cnccc2COC)c2c3cc(ccc31)-c1cc(O)cc(c1)C[C@H](NC(=O)[C@H](C(C)C)N(C)C(=O)[C@H]1CCN(C(=O)C#CCN(C)C)C1)C(=O)N1CCC[C@H](N1)C(=O)OCC(C)(C)C2 [Example A88]
- EC50 [1, 5]: < 5 µM

Structure (SMILES): CCn1c(-c2ccccc2CN(C)C)c2c3cc(ccc31)-c1cc(O)cc(c1)C[C@H](NC(=O)[C@H](C(C)C)N(C)C(=O)c1nc(NC(=O)/C=C/CN(C)C)cs1)C(=O)N1CCC[C@H](N1)C(=O)OCC(C)(C)C2 [Example A90]
- IC50 ([2]; Homo sapiens, NCI-H358, 120 h): > 1 µM

Structure (SMILES): C=CC(=O)N1CC[C@H](C(=O)N(C)[C@H](C(=O)NC2C[C@@H]3CN(CCO3)c3ccc4c(c3)c(c(-c3cccnc3COC)n4CC)CC(C)(C)COC(=O)[C@@H]3CCCN(N3)C2=O)C(C)C)C1 (some centres unmarked) [Example A318]
- IC50 [2]: > 1 µM
- IC50 [3]: > 10 µM
- IC50 [4]: > 10 µM

— patent publication US11566007B2, “Ras inhibitors” (Revolution Medicines, Inc., priority 2019, dated 2023)
